This note sets out measurements from ChEMBL document CHEMBL3132769, “Fragment growing to retain or alter the selectivity of anchored kinase hinge-binding fragments” (Medchemcomm, 2014).

Test [1] concerns the target Dual specificity tyrosine-phosphorylation-regulated kinase 1A (Rattus norvegicus) (UniProt Q63470). Briefly: Inhibition of rat full length DYRK1a expressed in Escherichia coli cell assessed as substrate phosphorylation using fluorescence-labelled peptides as substrate at 0.1 uM after 90 mins by microfluidic peptide phosphorylation assay.
The target of test [2] is Fibroblast growth factor receptor 3 (Homo sapiens) (UniProt P22607). Nature of the test: Inhibition of human FGFR3 catalytic domain expressed in baculovirus assessed as substrate phosphorylation using fluorescence-labelled peptides as substrate at 0.2 uM after 90 mins by microfluidic peptide phosphorylation assay.
Fibroblast growth factor receptor 3 (Homo sapiens), sequence (P22607 23-806 limits assumed): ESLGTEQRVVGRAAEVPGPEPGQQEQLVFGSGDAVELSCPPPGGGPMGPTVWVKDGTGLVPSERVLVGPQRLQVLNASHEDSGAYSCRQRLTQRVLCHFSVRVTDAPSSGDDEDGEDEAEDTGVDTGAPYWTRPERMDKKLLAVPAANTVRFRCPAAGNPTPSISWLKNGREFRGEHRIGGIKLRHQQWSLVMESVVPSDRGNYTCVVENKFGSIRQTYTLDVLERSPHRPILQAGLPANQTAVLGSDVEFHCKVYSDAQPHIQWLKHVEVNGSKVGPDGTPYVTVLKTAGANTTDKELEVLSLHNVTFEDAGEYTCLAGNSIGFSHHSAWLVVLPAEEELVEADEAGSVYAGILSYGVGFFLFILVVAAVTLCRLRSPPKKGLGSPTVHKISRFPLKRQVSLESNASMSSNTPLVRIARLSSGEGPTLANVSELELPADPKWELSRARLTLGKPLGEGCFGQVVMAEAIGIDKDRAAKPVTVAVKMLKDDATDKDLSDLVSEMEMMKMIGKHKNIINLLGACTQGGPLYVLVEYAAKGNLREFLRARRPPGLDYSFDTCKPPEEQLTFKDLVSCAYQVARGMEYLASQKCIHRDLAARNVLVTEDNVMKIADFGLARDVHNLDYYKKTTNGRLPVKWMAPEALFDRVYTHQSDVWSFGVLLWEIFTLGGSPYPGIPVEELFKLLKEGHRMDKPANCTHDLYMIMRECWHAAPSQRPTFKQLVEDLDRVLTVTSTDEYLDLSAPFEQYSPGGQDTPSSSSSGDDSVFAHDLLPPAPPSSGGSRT
Test [3] deals with T1, MAP kinase-activated protein kinase 5 (Homo sapiens) (UniProt Q8IW41).
T1 sequence (whole entry): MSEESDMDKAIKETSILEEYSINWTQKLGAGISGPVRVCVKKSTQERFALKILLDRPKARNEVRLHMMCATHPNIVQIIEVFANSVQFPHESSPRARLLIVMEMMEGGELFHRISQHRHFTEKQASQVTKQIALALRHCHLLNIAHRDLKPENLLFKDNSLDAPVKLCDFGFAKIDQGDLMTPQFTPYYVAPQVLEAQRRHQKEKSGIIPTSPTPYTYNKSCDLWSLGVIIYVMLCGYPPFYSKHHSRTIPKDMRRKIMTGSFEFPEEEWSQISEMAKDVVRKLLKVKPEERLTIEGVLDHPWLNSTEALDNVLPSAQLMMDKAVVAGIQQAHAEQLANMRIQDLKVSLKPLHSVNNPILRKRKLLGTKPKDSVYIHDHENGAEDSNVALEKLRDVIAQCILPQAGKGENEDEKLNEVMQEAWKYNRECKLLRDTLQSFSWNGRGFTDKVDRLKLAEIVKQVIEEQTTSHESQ
Nature of the test: Inhibition of human full length PRAK expressed in baculovirus assessed as substrate phosphorylation using fluorescence-labelled peptides as substrate at 95 uM after 90 mins by microfluidic peptide phosphorylation assay.

Test [4] has as its target Fibroblast growth factor receptor 1 (Homo sapiens) (UniProt P11362). Nature of the test: Inhibition of human FGFR1 catalytic domain expressed in baculovirus assessed as substrate phosphorylation using fluorescence-labelled peptides as substrate at 95 uM after 90 mins by microfluidic peptide phosphorylation assay.
Test [5] concerns the target T2, Serine/threonine-protein kinase BRSK2 (Homo sapiens) (UniProt Q8IWQ3).
T2 sequence (whole entry): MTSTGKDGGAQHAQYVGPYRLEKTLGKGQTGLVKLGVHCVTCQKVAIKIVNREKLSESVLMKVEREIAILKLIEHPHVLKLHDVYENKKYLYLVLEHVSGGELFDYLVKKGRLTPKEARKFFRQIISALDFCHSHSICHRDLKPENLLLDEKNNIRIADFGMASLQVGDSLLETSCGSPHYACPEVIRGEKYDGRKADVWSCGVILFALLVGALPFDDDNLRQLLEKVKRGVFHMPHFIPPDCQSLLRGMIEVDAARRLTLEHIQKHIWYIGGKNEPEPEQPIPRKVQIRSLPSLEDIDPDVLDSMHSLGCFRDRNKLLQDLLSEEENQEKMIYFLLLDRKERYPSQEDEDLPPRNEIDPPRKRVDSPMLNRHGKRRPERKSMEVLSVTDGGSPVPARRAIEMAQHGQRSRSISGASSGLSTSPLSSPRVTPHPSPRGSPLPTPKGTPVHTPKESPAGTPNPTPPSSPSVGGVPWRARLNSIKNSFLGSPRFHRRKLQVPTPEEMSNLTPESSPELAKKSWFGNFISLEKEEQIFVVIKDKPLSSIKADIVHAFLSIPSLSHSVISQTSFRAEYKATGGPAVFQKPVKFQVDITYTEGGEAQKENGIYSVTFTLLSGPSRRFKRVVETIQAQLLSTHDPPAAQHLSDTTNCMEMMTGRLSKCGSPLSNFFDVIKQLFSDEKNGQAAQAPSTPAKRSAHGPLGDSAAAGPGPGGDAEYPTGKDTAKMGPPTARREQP
Briefly: Inhibition of human truncated BRSK2 expressed in baculovirus assessed as substrate phosphorylation using fluorescence-labelled peptides as substrate at 1000 uM after 90 mins by microfluidic peptide phosphorylation assay.

Test [6] relates to T3, Receptor-type tyrosine-protein kinase FLT3 (Homo sapiens), P36888 [D835Y].
T3 sequence (whole entry): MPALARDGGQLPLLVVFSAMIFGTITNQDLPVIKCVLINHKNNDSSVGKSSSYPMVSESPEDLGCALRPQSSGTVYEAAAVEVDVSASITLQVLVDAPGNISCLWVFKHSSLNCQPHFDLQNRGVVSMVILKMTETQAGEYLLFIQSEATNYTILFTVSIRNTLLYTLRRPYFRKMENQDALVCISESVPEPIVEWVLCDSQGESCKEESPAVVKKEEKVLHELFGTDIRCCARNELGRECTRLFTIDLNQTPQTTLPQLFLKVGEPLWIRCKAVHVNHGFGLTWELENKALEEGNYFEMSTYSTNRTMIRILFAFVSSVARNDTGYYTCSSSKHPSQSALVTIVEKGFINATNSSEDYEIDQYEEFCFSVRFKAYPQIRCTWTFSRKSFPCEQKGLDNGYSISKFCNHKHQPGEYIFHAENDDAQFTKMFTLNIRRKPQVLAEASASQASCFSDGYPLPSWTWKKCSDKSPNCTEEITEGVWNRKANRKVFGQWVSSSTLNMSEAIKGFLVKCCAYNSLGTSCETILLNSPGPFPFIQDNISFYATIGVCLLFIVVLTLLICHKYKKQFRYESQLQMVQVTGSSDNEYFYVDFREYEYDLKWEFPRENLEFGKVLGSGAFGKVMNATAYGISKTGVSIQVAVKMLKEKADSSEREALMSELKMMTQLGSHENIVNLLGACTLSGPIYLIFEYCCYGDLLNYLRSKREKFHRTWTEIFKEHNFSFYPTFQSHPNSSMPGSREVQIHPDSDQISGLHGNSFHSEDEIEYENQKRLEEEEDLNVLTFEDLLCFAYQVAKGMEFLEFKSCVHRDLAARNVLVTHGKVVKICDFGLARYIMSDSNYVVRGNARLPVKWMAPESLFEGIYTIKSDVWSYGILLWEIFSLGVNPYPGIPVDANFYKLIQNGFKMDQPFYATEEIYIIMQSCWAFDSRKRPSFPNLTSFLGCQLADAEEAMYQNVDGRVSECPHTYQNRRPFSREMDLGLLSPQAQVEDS
Nature of the test: Inhibition of human FLT3 D835Y mutant catalytic domain expressed in baculovirus assessed as substrate phosphorylation using fluorescence-labelled peptides as substrate at 1000 uM after 90 mins by microfluidic peptide phosphorylation assay.

Test [7] addresses Epidermal growth factor receptor (Homo sapiens) (UniProt P00533). Nature of the test: Inhibition of human EGFR catalytic domain expressed in baculovirus assessed as substrate phosphorylation using fluorescence-labelled peptides as substrate at 1000 uM after 90 mins by microfluidic peptide phosphorylation assay.

Epidermal growth factor receptor (Homo sapiens), sequence (P00533 whole entry, the tested form may be a part): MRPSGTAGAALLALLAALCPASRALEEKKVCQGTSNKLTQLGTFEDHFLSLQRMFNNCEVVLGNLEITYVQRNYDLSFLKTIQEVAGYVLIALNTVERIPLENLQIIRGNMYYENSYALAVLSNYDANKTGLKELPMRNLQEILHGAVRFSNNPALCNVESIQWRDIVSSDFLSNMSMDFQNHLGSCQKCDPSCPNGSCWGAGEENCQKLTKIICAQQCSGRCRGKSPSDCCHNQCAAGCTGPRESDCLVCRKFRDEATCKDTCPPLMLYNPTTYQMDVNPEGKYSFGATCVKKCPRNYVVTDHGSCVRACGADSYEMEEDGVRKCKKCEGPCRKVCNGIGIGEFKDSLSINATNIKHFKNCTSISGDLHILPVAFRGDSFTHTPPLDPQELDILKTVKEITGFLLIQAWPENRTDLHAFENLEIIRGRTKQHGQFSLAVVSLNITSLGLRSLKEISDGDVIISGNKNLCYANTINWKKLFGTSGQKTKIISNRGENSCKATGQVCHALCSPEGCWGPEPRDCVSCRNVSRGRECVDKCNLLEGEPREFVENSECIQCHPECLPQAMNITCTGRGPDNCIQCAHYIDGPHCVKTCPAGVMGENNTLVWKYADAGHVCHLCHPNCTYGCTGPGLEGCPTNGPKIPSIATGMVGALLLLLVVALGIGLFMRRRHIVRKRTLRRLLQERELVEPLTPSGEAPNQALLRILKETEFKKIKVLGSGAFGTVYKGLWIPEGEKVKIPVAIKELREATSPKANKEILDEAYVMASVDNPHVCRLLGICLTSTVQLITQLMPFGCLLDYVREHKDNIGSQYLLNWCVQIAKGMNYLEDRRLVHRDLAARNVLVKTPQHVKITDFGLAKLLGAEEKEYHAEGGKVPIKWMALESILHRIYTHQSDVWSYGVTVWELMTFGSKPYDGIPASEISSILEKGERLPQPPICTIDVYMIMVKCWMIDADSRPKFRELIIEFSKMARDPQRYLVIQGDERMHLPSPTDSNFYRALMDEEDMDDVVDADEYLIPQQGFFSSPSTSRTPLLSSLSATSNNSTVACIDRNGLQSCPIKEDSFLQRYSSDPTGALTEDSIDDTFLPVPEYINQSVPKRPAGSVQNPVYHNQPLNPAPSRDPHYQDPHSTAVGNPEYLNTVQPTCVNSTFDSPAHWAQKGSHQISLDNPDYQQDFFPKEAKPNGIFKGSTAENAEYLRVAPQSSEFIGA
Fibroblast growth factor receptor 1 (Homo sapiens), sequence (P11362 22-822 limits assumed): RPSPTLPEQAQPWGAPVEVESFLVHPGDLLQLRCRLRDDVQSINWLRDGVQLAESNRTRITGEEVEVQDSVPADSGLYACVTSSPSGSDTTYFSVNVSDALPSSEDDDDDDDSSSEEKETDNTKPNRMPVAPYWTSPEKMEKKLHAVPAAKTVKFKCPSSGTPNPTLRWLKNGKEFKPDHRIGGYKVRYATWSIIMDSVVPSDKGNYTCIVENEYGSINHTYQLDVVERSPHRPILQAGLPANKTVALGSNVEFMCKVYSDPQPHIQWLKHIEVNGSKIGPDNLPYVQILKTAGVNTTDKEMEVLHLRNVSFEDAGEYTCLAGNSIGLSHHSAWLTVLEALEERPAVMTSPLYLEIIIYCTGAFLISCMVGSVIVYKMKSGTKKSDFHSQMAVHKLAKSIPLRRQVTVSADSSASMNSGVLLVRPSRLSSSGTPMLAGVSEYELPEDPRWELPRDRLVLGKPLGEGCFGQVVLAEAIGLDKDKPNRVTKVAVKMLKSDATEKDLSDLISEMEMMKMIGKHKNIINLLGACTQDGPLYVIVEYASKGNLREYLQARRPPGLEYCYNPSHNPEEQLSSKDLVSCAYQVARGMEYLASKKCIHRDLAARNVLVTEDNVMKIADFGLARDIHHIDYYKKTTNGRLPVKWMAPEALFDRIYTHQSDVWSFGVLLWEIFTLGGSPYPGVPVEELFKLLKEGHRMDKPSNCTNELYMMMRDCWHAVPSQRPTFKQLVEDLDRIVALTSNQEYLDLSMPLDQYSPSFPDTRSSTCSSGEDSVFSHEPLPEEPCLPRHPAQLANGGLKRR

A word on the inhibition: it is the percentage by which the read-out fell short of the control. Take `C[C@H](CN(C)C)Oc1nc(Nc2cc3cccc(Cl)c3cn2)cnc1C#N`: the inhibition in test [1] came out at 3.5%. In the case of `Clc1ccc(C2(c3ccc(-c4ncnc5[nH]cnc45)cc3)CCNCC2)cc1`, the inhibition in test [2] was found to be 0%. Regarding `NCCc1ccc(-c2ncnc3[nH]cnc23)cc1`, the inhibition in test [3] turned out to be 35%; in test [4], 72%. Take `c1cnc2[nH]ccc2c1`: the inhibition turned out to be 28% in test [5], 76% in test [6] and 13.5% in test [7].
